# Measured values: ChEMBL document CHEMBL1201862, “PubChem BioAssay data set” (2004)
#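 Step 1: Grow cells in 96-well plates. Step 2: Expose to compound for 48 hours at 5 concentrations. Step 3: Interpolate endpoints linearly; if unreached, use highest concentration. GI50 is the concentration that inhibits growth by half.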 Calls of active or inactive are those of the source. Rule as the data show it: active = GI50 up to about 1.1 µM and inactive = higher.
# Experiments:
# Test in all cases: growth of human tumour cells (NCI), 48 h
# NCI-H226 = test system: NCI-H226
# EKVX = test system: EKVX
# NCI-H23 = test system: NCI-H23
# OVCAR-8 = test system: OVCAR-8
# MDA-MB-435 = test system: MDA-MB-435
# PC-3 = test system: PC-3
# HOP-92 = test system: HOP-92
# NCI-H522 = test system: NCI-H522
# Malme-3M = test system: Malme-3M
# HCT-15 = test system: HCT-15
# CAKI-1 = test system: CAKI-1
# SK-MEL-28 = test system: SK-MEL-28
# HCT-116 = test system: HCT-116
# A498 = test system: A498
# HL-60 = test system: HL-60
# NCI/ADR-RES = test system: NCI/ADR-RES
# M14 = test system: M14
# SF-539 = test system: SF-539
# HCC 2998 = test system: HCC 2998
# SF-268 = test system: SF-268
smiles,measurement,setting,value
CC(=O)OC1CC[C@]2(C)C3CC[C@@]4(C)C(CCC4[C@H](C)CCCC(C)C)[C@@H]3CCC2(Br)C1 (stereo not given in full),GI50,NCI-H226,> 50 µM (inactive)
same,GI50,EKVX,> 50 µM (inactive)
same,GI50,NCI-H23,13 µM (inactive)
same,GI50,OVCAR-8,10.8 µM (inactive)
same,GI50,MDA-MB-435,8.83 µM (inactive)
same,GI50,PC-3,10.9 µM (inactive)
same,GI50,HOP-92,19.7 µM (inactive)
same,GI50,NCI-H522,10.3 µM (inactive)
same,GI50,Malme-3M,10.9 µM (inactive)
same,GI50,HCT-15,15.1 µM
same,GI50,CAKI-1,9.1 µM (inactive)
same,GI50,SK-MEL-28,7.91 µM (inactive)
same,GI50,HCT-116,9.29 µM (inactive)
same,GI50,A498,8.13 µM (inactive)
same,GI50,HL-60,9.59 µM (inactive)
same,GI50,NCI/ADR-RES,41 µM (inactive)
same,GI50,M14,18.5 µM (inactive)
same,GI50,SF-539,9.18 µM (inactive)
same,GI50,HCC 2998,> 50 µM (inactive)
same,GI50,SF-268,11.7 µM (inactive)
